From patent US20220274947A1, “NOVEL HETEROARYL-TRIAZOLE COMPOUNDS AS PESTICIDES” (Bayer Aktiengesellschaft, priority 2019, published 2022)

How the values were obtained:
Assay type in all cases: in vivo
Nezara viridula = Nezara viridula spray test; settings: in Hordeum vulgare, 96 h, barley plants, larvae, after 4 days; for mortality at 500 g/ha: application rate 500 g/ha; for mortality at 100 g/ha: application rate 100 g/ha
Description: Nezara viridula—Spray Test Solvent: 78.0 parts by weight of acetone • • 1.5 parts by weight of dimethylformamide Emulsifier: alkylarylpolyglycol ether
To produce a suitable preparation of active compound, 1 part by weight of active compound is mixed with the stated amount of solvent, and the concentrate is diluted with water, containing an emulsifier concentration of 1000 ppm, to the desired concentration. Further test concentrations are prepared by dilution with emulsifier containing water.
Barley plants (Hordeum vulgare) infested with larvae of the southern green stink bug (Nezara viridula) are sprayed with a test solution containing the desired concentration of the active ingredient.
After 4 days mortality in % is determined. 100% means all the stink bugs have been killed; 0% means none of the stink bugs have been killed.

Rhipicephalus microplus [1] = experiment: Rhipicephalus (Boophilus) microplus injection test (BOOPMI Inj); settings: 168 h, injection into adult engorged female ticks, egg deposition after 7 days, read-out: activity (efficacy: 100% means all eggs are infertile); for pest or weed control at 0.004 mg: application rate 4 μg/tick; for pest or weed control at 0.02 mg: application rate 20 μg/tick
Procedure, shortened: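 Five engorged adult female R. microplus ticks injected into the abdomen with 1 μL of compound diluted in DMSO, then kept in a climate chamber. Fertile egg deposition checked after 7 days; eggs without visible fertility held until hatching at about 42 days. Efficacy: 100% = all eggs infertile, 0% = all fertile.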

Rhipicephalus microplus [2] = experiment: Rhipicephalus (Boophilus) microplus in-vitro contact test, larval cattle tick, strain Parkhurst (BOOPMI Cont); settings: application rate 5 μg/cm^2 (=500 g/ha), tick larvae, after 48 hours, read-out: activity (efficacy: 100% means all larvae are dead or moribund)
Procedure, shortened: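 Acetone solutions dried onto glass tube walls (900 ppm giving 5 μg/cm^2); 20-50 pyrethroid-resistant Parkhurst larvae added per tube and held 48 h at 27° C., 85% relative humidity. Efficacy scored by negative geotaxis as % dead or moribund larvae.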

[3] = test system: Musca domestica strain WHO—N; experiment: Musca domestica test (MUSCDO surface treatment & contact assay); settings: exposure 30 minutes, 24 hours after contact, read-out: efficacy (mortality); for mortality at 20 mg/m2: surface concentration 20 mg/m^2, glazed tile; for mortality at 4 mg/m2: surface concentration 4 mg/m^2, glazed tile
Procedure, shortened: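 Compound dissolved in acetone (2 mg/ml) with 2000 ppm rapeseed oil methyl ester and pipetted onto glazed tile; after acetone evaporation, adult flies exposed to dried surface for 30 minutes. Mortality (%) scored 24 hours after contact.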

Spodoptera frugiperda = Spodoptera frugiperda spray test; settings: in Zea mays, 168 h, read-out: activity (mortality)
Procedure, shortened: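 Maize leaf sections were sprayed with compound formulated in acetone/DMF and diluted in water containing 1000 ppm emulsifier. Dried leaves were infested with fall armyworm larvae, and percent mortality was scored after 7 days.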

Diabrotica balteata = Diabrotica balteata spray test; settings: 168 h, wheat seeds, larvae, after 7 days, read-out: activity (efficacy: 100% means all seedlings have grown up like in the untreated, uninfected control); for pest or weed control at 32 µg/disc, 100 g/ha: application rate 100 g/ha (=32 μg/well); for pest or weed control at 160 µg/disc, 500 g/ha: application rate 500 g/ha (=160 μg/well)
Procedure, shortened: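 Wheat seedlings, germinated 1 day on agar, were sprayed with compound in acetone/DMF diluted in water containing emulsifier, then infested with 10-20 Diabrotica balteata larvae. After 7 days efficacy in % was scored: 100% means seedlings grew like the untreated, uninfected control; 0% means none grew.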

Ctenocephalides felis [4] = experiment: Ctenocephalides felis oral test (CTECFE Oral); settings: 48 h, read-out: activity (mortality)
Procedure, shortened: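 About 20 unfed adult cat fleas fed through parafilm on cattle blood containing compound (DMSO concentrate diluted in blood to the desired concentration). Blood held at 37 °C, fleas at room temperature. Mortality (%) scored after 2 days.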

Myzus persicae = Myzus persicae oral test; settings: 120 h, read-out: activity (mortality)
Procedure, shortened: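 Percent mortality was recorded at day 5, where 0% means no aphids killed. Compound prepared from an acetone concentrate diluted in water and combined with IPL41 medium containing sugar was offered to mixed-stage green peach aphids, which sucked it through a parafilm seal.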

Ctenocephalides felis [5] = experiment: Ctenocephalides felis in-vitro contact test, adult cat flea (CTECFE Cont); settings: application rate 5 μg/cm^2 (=500 g/ha), adult cat fleas, after 48 hours, read-out: activity (efficacy: 100% means all fleas are dead or moribund)
Description: Ctenocephalides felis—In-Vitro Contact Tests Adult Cat Flea (CTECFE Cont)
9 mg compound is solved in 1 mL acetone and diluted with acetone to the desired concentration. 250 μL of the test solution is filled in 25 mL glass test tubes and homogeneously distributed on the inner walls by rotation and tilting on a shaking device (2 h at 30 rpm). With a compound concentration of 900 ppm, an inner surface of 44.7 cm^2 and a homogeneous distribution, a dose of 5 μg/cm^2 is achieved.
After the solvent has evaporated, each test tube is filled with 5-10 adult cat fleas (Ctenocephalides felis), closed with a perforated lid and incubated in a lying position at room temperature and relative humidity. After 48 hours efficacy is determined. The fleas are patted on the ground of the tubes and are incubated on a heating plate at 45-50° C. for at most 5 minutes. Immotile or uncoordinated moving fleas, which are not able to escape the heat by climbing upwards, are marked as dead or moribund.
An efficacy of 100% means all fleas are dead or moribund; 0% means no fleas are dead or moribund.

[6] = test system: Aedes aegypti strain MONHEIM; experiment: Aedes aegypti test (AEDSAE surface treatment & contact assay); settings: exposure 30 minutes, 24 hours after contact, read-out: efficacy (mortality); for mortality at 4 mg/m2: surface concentration 4 mg/m^2, glazed tile; for mortality at 20 mg/m2: surface concentration 20 mg/m^2, glazed tile
Procedure, shortened: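 Compound dissolved in acetone (2 mg/ml) with 2000 ppm rapeseed oil methyl ester, pipetted onto glazed tile and dried. Adult mosquitoes exposed on the surface for 30 min; percent mortality scored 24 h after contact.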

Rhipicephalus sanguineus = Rhipicephalus sanguineus in-vitro contact test, adult brown dog ticks (RHIPSA Cont); settings: 48 h, after 48 hours, read-out: activity (efficacy: 100% means all ticks are dead or moribund); for pest or weed control at 5 µg/cm2, 500 g/ha: application rate 5 μg/cm^2 (=500 g/ha); for pest or weed control at 1 µg/cm2, 100 g/ha: application rate 1 μg/cm^2 (=100 g/ha)
Procedure, shortened: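 Compound in acetone was coated onto the inner walls of glass tubes and dried by rotation before adult brown dog ticks were exposed. Efficacy was scored at 48 h. Ticks unable to climb away from a 45–50 °C heating plate within 5 min counted as dead or moribund.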

Row | SMILES | mortality at 500 g/ha (Nezara viridula) [%] | pest or weed control at 0.004 mg (Rhipicephalus microplus [1]) [%] | pest or weed control at 0.02 mg (Rhipicephalus microplus [1]) [%] | pest or weed control at 5 µg/cm2 (Rhipicephalus microplus [2]) [%] | mortality at 20 mg/m2 [3] [%] | mortality at 100 g/ha (Spodoptera frugiperda) [%] | mortality at 500 g/ha (Spodoptera frugiperda) [%] | pest or weed control at 32 µg/disc, 100 g/ha (Diabrotica balteata) [%] | pest or weed control at 160 µg/disc, 500 g/ha (Diabrotica balteata) [%] | mortality at 100 ppm (Ctenocephalides felis [4]) [%] | mortality at 4 ppm (Myzus persicae) [%] | pest or weed control at 5 µg/cm2 (Ctenocephalides felis [5]) [%] | mortality at 4 mg/m2 [6] [%] | pest or weed control at 5 µg/cm2, 500 g/ha (Rhipicephalus sanguineus) [%] | mortality at 100 g/ha (Nezara viridula) [%] | pest or weed control at 1 µg/cm2, 100 g/ha (Rhipicephalus sanguineus) [%] | mortality at 20 mg/m2 [6] [%] | mortality at 4 mg/m2 [3] [%]
1 | C[C@H](NC(=O)c1cc(C(F)(F)F)cc(C(F)(F)F)c1)c1nc(C2CC2)nn1-c1ccc(C#N)cn1 [I-4] | 90 | 100 | 100 | 100 | 80 to 100 | 100 | 100 | 100 | 100 |  |  |  |  |  |  |  |  | 
2 | C[C@H](NC(=O)c1cc(Cl)cc(C(F)(F)F)c1)c1nc(C2CC2)nn1-c1ccc(C#N)cn1 [I-6, 3-chloro-N-{(1S)-1-[1-(5-cyanopyridin-2-yl)-3-cyclopropyl-1H-1,2,4-triazol-5-yl]ethyl}-5-(trifluoromethyl)benzamide] | 100 | 100 | 100 | 100 | 80 to 100 | 100 | 100 | 100 | 100 |  |  |  |  |  |  |  |  | 
3 | COc1nc([C@H](C)NC(=O)c2cc(C(F)(F)F)cc(C(F)(F)F)c2)n(-c2ccc(C#N)cn2)n1 [I-11] | 100 | 100 | 100 | 100 | 80 to 100 | 100 | 100 | 100 | 100 | 100 | 100 |  |  |  |  |  |  | 
4 | COc1nc([C@H](C)NC(=O)c2cc(Cl)cc(Cl)c2)n(-c2ccc(C#N)cn2)n1 [I-15] |  | 100 | 100 | 100 |  | 100 | 100 | 100 | 100 | 100 | 100 | 80 | 80 to 100 | 80 |  |  |  | 
5 | C[C@H](NC(=O)c1cc(Cl)cc(C(F)(F)F)c1)c1nc(C(C)(C)C)nn1-c1ccc(C#N)cn1 [I-38] |  | 100 | 100 | 100 | 80 to 100 | 83 |  | 100 |  |  |  |  |  | 80 | 100 | 100 |  | 
6 | C[C@H](NC(=O)c1cc(Cl)cc(C(F)F)c1)c1nc(C2CC2)nn1-c1ccc(C#N)cn1 [I-42] |  | 100 |  | 100 | 80 to 100 | 100 |  | 100 |  | 100 |  |  | 80 to 100 |  | 100 |  | 80 to 100 | 
7 | C[C@H](NC(=O)c1cc(Cl)cc(SC(F)F)c1)c1nc(C2CC2)nn1-c1ccc(C#N)cn1 [I-46] |  | 100 |  | 100 | 80 to 100 | 100 |  | 100 |  | 100 |  |  |  |  | 100 |  |  | 
8 | C[C@H](NC(=O)c1cc(OC(F)F)cc(OC(F)F)c1)c1nc(C2CC2)nn1-c1ccc(C#N)cn1 [I-47] |  | 100 |  | 100 | 80 to 100 | 100 |  | 80 |  | 90 |  |  | 80 to 100 | 80 | 100 | 100 |  | 80 to 100
9 | C[C@H](NC(=O)c1cc(I)cc(C(F)(F)F)c1)c1ncnn1-c1ccc(C#N)cn1 [II-46] | 100 | 100 | 100 | 100 | 80 to 100 | 100 | 100 | 100 | 100 | 100 |  |  | 80 to 100 | 100 |  | 100 | 80 to 100 | 80 to 100
10 | C[C@H](NC(=O)c1cc(Cl)cc(C(F)(F)F)c1)c1ncnn1-c1ccc(C(=O)N(C)CC(F)(F)F)cn1 [II-69] |  | 100 | 100 | 100 |  | 83 | 100 | 80 |  | 100 | 100 | 90 |  | 100 |  | 100 |  | 
11 | Cc1nc([C@H](C)NC(=O)c2cc(Cl)cc(C(F)(F)C(F)(F)F)c2)n(-c2ccc(C#N)cn2)n1 [II-75] |  | 100 | 100 | 100 |  | 100 |  | 100 |  | 100 | 100 | 90 |  | 100 |  | 100 |  | 
12 | C[C@H](NC(=O)c1cc(Br)cc(OC(F)(F)F)c1)c1ncnn1-c1cc(C#N)ccn1 [II-107] |  | 100 |  | 100 |  | 100 |  | 100 |  | 100 | 100 | 100 |  | 100 |  | 100 |  | 
